Measurements taken from article PMC10911062, “Identification and structural validation of purine nucleoside phosphorylase from Plasmodium falciparum as a target of MMV000848” (The Journal of Biological Chemistry, 2023).
Like-named read-outs stand apart in the source and are kept apart here.

Assays:
[1] = target: T1, Purine nucleoside phosphorylase (PfPNP) (Plasmodium falciparum, UniProt Q8I3X4); assay: xanthine oxidase-coupled inosine phosphorolysis assay; type: biochemical
T1 construct: gene PNP
T1 sequence (Q8I3X4 1-245): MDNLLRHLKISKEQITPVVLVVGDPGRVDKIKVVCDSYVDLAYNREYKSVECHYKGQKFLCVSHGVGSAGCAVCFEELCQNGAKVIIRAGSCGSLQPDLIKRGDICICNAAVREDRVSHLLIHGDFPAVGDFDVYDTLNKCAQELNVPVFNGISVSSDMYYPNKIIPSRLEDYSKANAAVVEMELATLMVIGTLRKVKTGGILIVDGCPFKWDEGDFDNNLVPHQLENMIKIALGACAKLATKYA

[2] = target: T1, Purine nucleoside phosphorylase (PfPNP); assay: ITC; cocrystal structure at […] Å; also DSF, CETSA and enzyme inhibition (IC50 […], Ki […]); type: binding
Falcilysin = target: T2, Falcilysin (Plasmodium falciparum, UniProt Q76NL8); assay: MS-CETSA (ITDR), intact infected erythrocytes and parasite lysate; minimal dose threshold; type: cell-based
T2 construct: gene FLN
T2 sequence (Q76NL8 whole entry): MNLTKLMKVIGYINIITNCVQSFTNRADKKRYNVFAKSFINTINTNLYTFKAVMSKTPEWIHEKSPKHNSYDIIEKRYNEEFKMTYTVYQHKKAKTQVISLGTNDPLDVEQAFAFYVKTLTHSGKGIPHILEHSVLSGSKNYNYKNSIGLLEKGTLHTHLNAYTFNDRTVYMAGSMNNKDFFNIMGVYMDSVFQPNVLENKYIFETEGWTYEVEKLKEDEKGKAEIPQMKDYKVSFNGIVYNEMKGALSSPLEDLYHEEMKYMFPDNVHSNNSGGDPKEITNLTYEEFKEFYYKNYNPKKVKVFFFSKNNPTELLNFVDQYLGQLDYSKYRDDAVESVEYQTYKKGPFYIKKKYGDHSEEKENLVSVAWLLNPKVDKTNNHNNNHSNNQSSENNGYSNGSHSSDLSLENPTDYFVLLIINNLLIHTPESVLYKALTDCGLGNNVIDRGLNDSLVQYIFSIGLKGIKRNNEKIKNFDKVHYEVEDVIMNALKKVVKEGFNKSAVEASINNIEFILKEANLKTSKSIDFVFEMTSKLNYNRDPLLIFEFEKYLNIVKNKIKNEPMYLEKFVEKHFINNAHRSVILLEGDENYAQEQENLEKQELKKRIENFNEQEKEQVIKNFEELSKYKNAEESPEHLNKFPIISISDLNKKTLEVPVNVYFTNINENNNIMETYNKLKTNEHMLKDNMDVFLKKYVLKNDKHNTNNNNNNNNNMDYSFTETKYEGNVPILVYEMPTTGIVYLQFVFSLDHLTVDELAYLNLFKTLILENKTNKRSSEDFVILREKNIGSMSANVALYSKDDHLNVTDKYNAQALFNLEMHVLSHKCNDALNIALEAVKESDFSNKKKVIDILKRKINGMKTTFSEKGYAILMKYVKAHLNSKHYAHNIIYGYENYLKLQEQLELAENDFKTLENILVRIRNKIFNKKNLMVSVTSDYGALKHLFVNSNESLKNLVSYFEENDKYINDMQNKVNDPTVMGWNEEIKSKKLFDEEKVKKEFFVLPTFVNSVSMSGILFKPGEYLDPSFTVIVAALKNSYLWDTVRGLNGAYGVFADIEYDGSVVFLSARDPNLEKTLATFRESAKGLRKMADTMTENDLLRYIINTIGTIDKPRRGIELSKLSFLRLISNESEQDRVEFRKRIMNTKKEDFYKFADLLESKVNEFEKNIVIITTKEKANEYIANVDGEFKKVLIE

[3] = target: T1, Purine nucleoside phosphorylase (PfPNP); assay: Michaelis-Menten kinetics of the purified enzyme; type: biochemical
[4] = target: the molecule itself; assay: crystal structure; co-crystal of PfPNP (37 mg/ml) with 3 mM MMV000848, sitting-drop vapor diffusion at 20 °C, 10% (w/v) PEG 1000; 1.85 Å, space group R32; hexamer formed through crystallographic symmetry

OC(c1cc(C(F)(F)F)nc2c(C(F)(F)F)cccc12)C1CCCCN1 (racemic) [mefloquine]
IC50 [1]: 327 µM

OC(CNC1CCCC1)Cn1c2ccccc2c2ccccc21 (stereo not drawn) [MMV000848, 1-carbazol-9-yl-3-cyclopentylamino-propan-2-ol]
Kd [2]: 1.52 µM | MDT (Falcilysin): 749.91 nM

O=c1[nH]cnc2c1ncn2[C@@H]1O[C@H](CO)[C@@H](O)[C@H]1O [inosine]
Michaelis-Menten kinetics of the purified enzyme [3]: Measurements of KM,app (apparent KM) of inosine was made in the presence of various concentrations of MMV000848

C=C[C@H]1C[N@@]2CC[C@H]1C[C@H]2[C@H](O)c1ccnc2ccc(OC)cc12 [quinine]
IC50 ([1]; read-out: IC50): 11.3 µM

B1: Plasmodium falciparum purine nucleoside phosphorylase (enzyme)
chain: T1 sequence (Q8I3X4 1-245)
notes: Purine nucleoside phosphorylase of Plasmodium falciparum, PlasmoDB PF3D7_0513300; gene subcloned into pNIC-CH; Homo-hexamer (three 2-fold symmetrical dimers around a crystallographic three-fold axis); one protein chain in the asymmetric unit; also called PfPNP; PNP; source: Rosetta BL21-DE3 Escherichia coli, purified (IMAC on HisTrapHP, SEC on Superdex 200)
stoichiometry N [4]: 6
